According to ChEMBL document CHEMBL4888484, “Replenishing the malaria drug discovery pipeline: Screening and hit evaluation of the MMV Hit Generation Library 1 (HGL1) against asexual blood stage Plasmodium falciparum ,using a nano luciferase reporter read-out” (2022):

How the values were obtained:
[1] = tested on: Plasmodium falciparum; test: Hit confirmation in dose-response curve in NF54 nanoGlo assay, at 12h; format: functional, organism-based, Erythrocyte; set-up: timepoint 12 hour
[2] = tested on: Plasmodium falciparum; test: Hit confirmation in dose-response curve in NF54 nanoGlo assay, at 72h; format: functional, organism-based, Erythrocyte; set-up: timepoint 72 hour
[3] = tested on: Plasmodium falciparum; test: Re-testing in dose-response curve in 3D7 pLDH assay, at 72h; format: functional, organism-based; set-up: timepoint 72 hour; details: 3D7, Erythrocyte
[4] = tested on: Plasmodium falciparum; test: Hit confirmation in dose-response curve in NF54 pLDH assay, at 72h; format: functional, organism-based; set-up: timepoint 72 hour; details: NF54, Erythrocyte
[5] = Re-testing in dose-response curve in HepG2 cytotoxicity assay, at 72h; format: toxicity, cell-based; set-up: timepoint 72 hour; details: human, HepG2 cells
[6] = tested on: Plasmodium falciparum; test: Hit confirmation in dose-response curve in Dd2 pLDH assay, at 72h; format: functional, organism-based; set-up: timepoint 72 hour; details: Dd2, Erythrocyte
[7] = Hit confirmation in dose-response curve in HepG2 cytotoxicity assay, at 72h; format: toxicity, cell-based; set-up: timepoint 72 hour; details: human, HepG2 cells
[8] = Plasmodium falciparum, NF54, Erythrocyte, 12 h
[9] = Plasmodium falciparum, NF54, Erythrocyte, 72 h

SMILES | IC50 [1, 8] [µM] | IC50 [2, 9] [µM] | IC50 [3] [µM] | IC50 [4] [µM] | IC50 [6] [µM] | IC50 ([1]; erythrocyte) [µM] | IC50 ([2]; erythrocyte) [µM] | IC50 at 72 h [5] [µM] | IC50 at 72 h [7] [µM]
COc1ccc2nc(O)c(C(=O)Nc3ccc4c(c3F)CCNC4)cc2c1 | 1.45 | 0.776 | 0.845 | 1.1 | 1 |  |  | 2.27 | 5.62
O=S(=O)(NC12CCCC1CNC2)c1onc(C2CC2)c1Cl (stereo not drawn) | 1.62 | 0.891 | 10.5 | 1.48 | 1.15 |  |  | > 25 | > 10
Cc1ccc(NC(=O)c2c(C)nc3sc(C(=O)NCc4ccccc4)c(N)c3c2-c2ccccc2Cl)c(C)c1 | 1.51 | 0.831 | 1.08 | 1.41 | 1.78 |  |  | > 25 | > 10
CN(C)Cc1ccc(NC(=O)c2cc(F)cc3c(=O)c4cc(F)ccc4[nH]c23)cc1 | > 10 | 0.525 | ~0.377 | 1.2 | 0.708 |  |  | 2.86 | > 10
O=C(Nc1cnc2ccccc2c1)c1ccccc1C(=O)c1ccc(F)cc1 | 0.631 | 0.49 | 1.39 | 2.57 | 0.955 |  |  | > 25 | > 10
CC(C)CC[C@@H](CCNCCN(C)C)c1ccc(Cl)cc1 | 0.891 | 0.562 | 3.23 | 1.02 | 0.977 |  |  | 14.9 | > 10
N#Cc1cc(S(=O)(=O)NCCN(C2CC2)S(=O)(=O)c2ccc(Cl)c(C#N)c2)ccc1Cl | 2.82 | 2.04 | 1.1 | 3.31 | 2 |  |  | 13.6 | > 10
CC(=O)N(C1CCN(Cc2ccccc2)CC1)C1(C(=O)Nc2ccc3[nH]ccc3c2)CCN(C)CC1 | 3.98 | 1.66 | 1.23 | 1.26 | 1.23 |  |  | > 25 | > 10
CCOc1cccc(-c2ccc3nc(-c4cccc(OC)c4)c(CCC(=O)NCCN4CCCC4)n3c2)c1 | 7.24 | 0.309 | 0.0548 | 0.282 | 1.2 |  |  | 15.9 | > 10
COc1ccccc1C(=O)NC1=NN2C(=NC(c3ccc(Cl)cc3)=C[C@H]2c2ccc(Cl)cc2)N1 | 1.07 | 0.63 | 4.93 | 2.75 | 1.1 |  |  | > 25 | > 10
CN1CC[C@]2(CCN(c3ccnc4ccsc34)C2)C1 | 0.912 | 0.55 | 0.461 | 0.38 | 0.407 |  |  | > 24.8 | > 10
O=C(Nc1cc(N2CCCS2(=O)=O)ccc1O)c1cccc(Oc2cccc(C(F)(F)F)c2)c1 | 0.501 | 0.355 | 0.416 | 1.1 | 0.537 |  |  | 20.8 | > 10
Oc1ccccc1CCN[C@H]1CCc2ccc(F)cc21 | 0.257 | 0.195 | 0.429 | 0.309 | 0.269 |  |  | > 25 | > 10
Nc1ncc(C(=O)N2CCC3(CCCCCC3)C2)s1 | 1 | 0.832 | 0.575 | 0.871 | 1.12 |  |  | > 25 | > 10
CN(CCNC(=O)CCc1cn(-c2ccccc2)nc1-c1ccc2c(c1)OCO2)C1CCCCC1 | > 10 | 1.48 | 0.545 | 3.31 | 1.48 |  |  | ~9.24 | > 10
CC(C)c1ccc(-c2nc(CN3CCCCC3)cc(CN3CCCCC3)c2O)cc1 |  |  | 1.13 | 2.4 | 1.23 | 1.17 | 0.813 | > 25 | > 10
CC(C)c1cc(CN(Cc2cc(C(C)C)c(O)c(C(C)C)c2)C2CCCCC2)cc(C(C)C)c1O | 0.631 | 0.1 | 0.113 | 0.151 | 0.1 |  |  | > 8.33 | > 10
Cc1cc(NC(=O)C(=O)NC2CC(C)CC(C)(C)C2)n(-c2nc3c(c(=O)[nH]2)CCC3)n1 (stereo not drawn) | > 10 | 1.15 | 0.392 | 2.09 | 1.78 |  |  | 0.118 | > 10
CCc1ccc(C(=O)NCCCC2CCCC2O)cc1S(=O)(=O)N1CCOCC1 (stereo not drawn) | > 10 | 1.91 | 2.49 | 4.37 | 0.977 |  |  | > 25 | > 10
CCc1nc2c(C(=O)N3CCOc4c(C)cc(C)cc43)ccnc2[nH]1 | > 10 | 1.41 | 0.234 | 4.27 | 1.29 |  |  | > 25 | > 10
Oc1ccccc1-c1cnc(C(F)(F)F)s1 | 1.32 | 0.776 | 5 | 1.05 | 1.02 |  |  | 19.4 | > 10

Further lines, with some results ahead:

IC50 [1, 8] [µM] | IC50 [2, 9] [µM] | IC50 [3] [µM] | IC50 [4] [µM] | IC50 [6] [µM] | IC50 ([1]; erythrocyte) [µM] | IC50 ([2]; erythrocyte) [µM] | SMILES | IC50 at 72 h [5] [µM] | IC50 at 72 h [7] [µM]
2.34 | 0.229 | 1.32 | 0.676 | 0.275 |  |  | Cc1cccc(CN(Cc2cccc(C)n2)C[C@H]2CCCCO2)n1 | > 25 | > 10
> 10 | 2.69 | 0.522 | 1.35 | 1.41 |  |  | CCC1=C(c2ccc(C)cc2)S(=O)(=O)N=C1N1CCC(C(=O)NCCN2CCCC[C@@H]2C)CC1 | > 25 | > 10
> 10 | 1.1 | 1.05 | 2.69 | 1.2 |  |  | C[C@H](N)c1ccc(Nc2ncc3cc(-c4ccncc4)ccc3n2)cc1 | 11.4 | > 10
10 | 2.69 | 10.5 | 1.32 | 1.45 |  |  | O=S(=O)(Nc1ccc(O)c2cccnc12)N1CCCC1 | 12.5 | > 10
> 10 | 0.501 | 0.289 | 2.04 | 0.871 |  |  | COc1ccc(-c2cc(C(=O)N[C@H]3CCN(c4ccc(=O)[nH]n4)C3)c(C)n2C)cc1 | > 25 | > 10
> 10 | 0.145 | 3.65 | 0.174 | 0.132 |  |  | CCOC(=O)c1c(CN2CCCC2)n(C)c2cc(-c3cccnc3)c(O)c(Cn3ccnc3)c12 | > 25 | > 10
> 10 | 1.7 | 0.709 | 0.447 | 0.501 |  |  | NC(=NCc1cccc2cccnc12)N1CCN(c2nccs2)CC1 | > 25 | > 10
0.407 | 0.275 | 0.291 | 0.832 | 0.602 |  |  | Cc1c([C@@H](NCc2ncccc2O)C(C)C)oc2ccccc12 | > 25 | > 10
7.08 | 4.57 | 0.321 | 1.02 | 0.646 |  |  | Cc1cnccc1NCCNC1CCN(c2ccc3c(c2)CCC3)CC1 | 5.42 | 8.13
> 10 | 3.98 | 0.575 | 6.92 | 1.95 |  |  | O=C(c1cscn1)N1CC[C@H](Oc2cccc(Cl)c2)C1 | > 25 | > 10
7.59 | 2 | 1.15 | 2 | 1.55 |  |  | Clc1cccc(CNCCCNc2ccncc2)c1Cl | 16.3 | > 10
1.32 | 0.912 | 0.609 | 1.38 | 1.17 |  |  | CCN1CCN(c2cccc(NC(=O)c3cc(F)cc4c(=O)c5cc(F)ccc5[nH]c34)c2)CC1 | 3.48 | > 10
> 10 | 1.05 | 0.347 | 3.63 | 0.794 |  |  | COc1ccc(-c2cc(C(=O)N[C@H]3CCN(c4ccc(=O)n(C)n4)C3)c(C)n2C)cc1 | > 25 | > 10
1.73 | 1.23 | 1.28 | 1.82 | 1.55 |  |  | COc1cccc(-c2cc(O)cc(CC[C@H]3CCCCN3)c2)n1 | > 25 | > 10
4.79 | 0.955 | ~0.459 | 1.7 | 1.17 |  |  | CCN1CCN(c2cccc(NC(=O)c3ccc4[nH]c5ccccc5c(=O)c4c3)c2)CC1 | 7.42 | > 10
3.09 | 1.58 | 5.09 | 3.16 | 1.74 |  |  | Cc1ccc(Nc2ccc(N3CCNCC3)nn2)nc1 | > 25 | > 10
8.91 | 1 | 0.663 | 0.794 | 0.708 |  |  | CCn1cnc2c(N3CCC[C@H](c4ccncc4)C3)ncnc21 | > 25 | > 10
2.51 | 1.38 | 1.15 | 2.1 | 1.91 |  |  | CN1CCCN(c2ccc(NC(=O)c3nn(-c4ccccc4)c(=O)c4ccccc34)cc2F)CC1 | 7.35 | > 10
